In patent publication US20170066717A1, “NEW PHENYLAZETIDINECARBOXYLATE OR -CARBOXAMIDE COMPOUNDS” (INVENTIVA, priority 2014, published 2017):

Experiments:
[1] = target: T1, NURR-1/RXRα (Homo sapiens, UniProt P19793); test: Transactivation test, NURR-1-Gal4/RXRα, luciferase reporter in Cos-7 cells; type: cell-based; conditions: for Emax: COS-7, induction level relative to reference XCT0135908 at 2×10^−5 M (=100%), read-out: hNurr1_RXRaFL Emax (%); for EC50: Cos-7 cells, NURR-1-Gal4/RXRα, luciferase reporter, read-out: hNurr1_RXRaFL EC50
T1 construct: expressed in transfected cells; host or cells: Cos-7 cells
Protocol: (§1) The ability of the compounds according to the invention to behave as an activator of the heterodimers formed by the NURR-1 nuclear receptor and the RXR nuclear receptors was measured by means of an in vitro test. A transactivation test was used as primary selection (screening) test. Cos-7 cells were cotransfected with a plasmid expressing a chimera of the human NURR-1-Gal4 receptor, a plasmid expressing the human RXR receptor (RXRα or RXRγ receptor) and a 5Gal4pGL3-TK-Luc reporter plasmid. The transfctions were carried out using a chemical agent (Jet PEI). The transfected cells were distributed into 384-well plates and left to stand for 21 hours. At time 24 hours the culture medium was changed. The test products were added (final concentration of between 10^''4 and 3×10^-10 M) to the culture medium. After incubation overnight, the lucifeiase expression was measured after addition of SteadyGlo according to the instructions of the manufacturer (Promega). […] The induction levels (Emax) were calculated relative to the basal activity of each heterodimer.

[2] = target: T2, NURR-1/RXRγ (Homo sapiens, UniProt P48443); test: Transactivation test, NURR-1-Gal4/RXRγ, luciferase reporter in Cos-7 cells; type: cell-based; conditions: for Emax: COS-7, induction level relative to reference XCT0135908 at 2×10^−5 M (=100%), read-out: hNurr1_RXRgFL Emax (%); for EC50: Cos-7 cells, NURR-1-Gal4/RXRγ, luciferase reporter, read-out: hNurr1_RXRgFL EC50
T2 construct: expressed in transfected cells; host or cells: Cos-7 cells
Protocol: as §1

T2 sequence (P48443 whole entry, the tested form may be a part): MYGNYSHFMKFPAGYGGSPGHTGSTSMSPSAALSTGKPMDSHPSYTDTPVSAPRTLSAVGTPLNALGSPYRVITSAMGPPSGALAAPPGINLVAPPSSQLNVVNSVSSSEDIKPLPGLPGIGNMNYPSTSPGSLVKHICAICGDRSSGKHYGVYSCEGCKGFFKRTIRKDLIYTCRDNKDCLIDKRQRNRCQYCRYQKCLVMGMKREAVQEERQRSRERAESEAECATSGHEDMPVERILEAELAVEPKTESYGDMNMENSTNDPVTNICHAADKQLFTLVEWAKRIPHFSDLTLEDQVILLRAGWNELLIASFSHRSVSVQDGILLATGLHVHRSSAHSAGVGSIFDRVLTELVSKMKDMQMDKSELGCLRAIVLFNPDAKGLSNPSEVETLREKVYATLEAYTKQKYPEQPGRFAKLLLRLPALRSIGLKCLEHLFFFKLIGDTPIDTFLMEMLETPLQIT
T2 sequence (P43354 whole entry partner, the tested form may be a part): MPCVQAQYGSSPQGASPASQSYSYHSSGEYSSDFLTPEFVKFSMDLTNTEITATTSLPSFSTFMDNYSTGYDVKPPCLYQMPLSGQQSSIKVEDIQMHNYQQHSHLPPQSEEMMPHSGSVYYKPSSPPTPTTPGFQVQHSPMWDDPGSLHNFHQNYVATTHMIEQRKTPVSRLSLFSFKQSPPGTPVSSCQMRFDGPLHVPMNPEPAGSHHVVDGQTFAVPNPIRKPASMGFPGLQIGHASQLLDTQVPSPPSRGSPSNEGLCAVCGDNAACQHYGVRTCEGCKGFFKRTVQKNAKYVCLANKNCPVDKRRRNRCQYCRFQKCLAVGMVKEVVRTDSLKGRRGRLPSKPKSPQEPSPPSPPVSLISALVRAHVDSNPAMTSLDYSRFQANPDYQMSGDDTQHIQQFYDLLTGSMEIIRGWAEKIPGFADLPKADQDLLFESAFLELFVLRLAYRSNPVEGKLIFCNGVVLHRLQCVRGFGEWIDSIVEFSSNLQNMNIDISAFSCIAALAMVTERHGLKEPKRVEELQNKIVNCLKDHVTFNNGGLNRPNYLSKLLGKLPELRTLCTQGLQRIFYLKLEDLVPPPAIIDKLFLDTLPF
T2 sequence (P04386 1-147 partner limits assumed): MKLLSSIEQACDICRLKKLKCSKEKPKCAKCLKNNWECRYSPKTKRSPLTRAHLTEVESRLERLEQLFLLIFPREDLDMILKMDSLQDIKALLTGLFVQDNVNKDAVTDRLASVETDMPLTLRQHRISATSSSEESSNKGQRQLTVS
T1 sequence (P19793 whole entry, the tested form may be a part): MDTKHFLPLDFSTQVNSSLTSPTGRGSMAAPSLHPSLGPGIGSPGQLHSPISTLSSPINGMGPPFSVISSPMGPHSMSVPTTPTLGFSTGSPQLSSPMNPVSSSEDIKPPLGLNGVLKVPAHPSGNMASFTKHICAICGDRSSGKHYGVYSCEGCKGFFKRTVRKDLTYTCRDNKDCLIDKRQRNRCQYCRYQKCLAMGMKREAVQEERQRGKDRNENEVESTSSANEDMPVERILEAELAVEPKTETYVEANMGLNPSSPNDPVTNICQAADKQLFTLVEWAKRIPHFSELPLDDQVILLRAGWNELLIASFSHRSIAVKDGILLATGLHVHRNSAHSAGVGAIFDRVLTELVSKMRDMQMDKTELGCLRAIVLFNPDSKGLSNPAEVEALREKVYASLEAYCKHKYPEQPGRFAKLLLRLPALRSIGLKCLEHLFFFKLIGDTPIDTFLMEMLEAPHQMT
T1 sequence (P43354 whole entry partner, the tested form may be a part): as the sequence (P43354 whole entry partner, the tested form may be a part) above
T1 sequence (P04386 1-147 partner limits assumed): as the sequence (P04386 1-147 partner limits assumed) above

Work on `Cc1cc(-c2cc(C(F)(F)F)ccc2Cl)cc(N2CC(C(=O)O)C2)c1` [Example 24, 1-[3-[2-chloro-5-(trifluoromethyl)phenyl]-5-methylphenyl]azetidine-3-carboxylic acid] yielded an Emax [1] of 114%, an EC50 [1] of 3 nM and an Emax [2] of 104%. It also gave an EC50 [2] of 13 nM.
Work on `O=C(O)C1CN(c2cccc(-c3cc(Cl)nc(C(F)(F)F)c3)c2)C1` [Example 78] yielded an Emax [1] of 93%, an EC50 [1] of 207 nM and an Emax [2] of 98%. It also gave an EC50 [2] of 339 nM.
`O=C(O)C1CN(c2cccc(-c3cc(C(F)(F)F)ccc3OCc3cccc(Cl)c3)c2)C1` [Example 107, 1-[3-[2-[(3-chlorophenyl)methyoxy]-5-(trifluoromethyl)-phenyl]phenyl]azetidine-3-carboxylic acid] was tested, and the Emax [1] was 48%, the EC50 [1] was 19 nM and the Emax [2] was 48%. For the same compound, the EC50 [2] was 30 nM.
With `O=C(O)C1CN(c2cccc(-c3cc(C(F)(F)F)ccc3OCc3cccs3)c2)C1` [Example 96] the Emax [1] was 117%, the EC50 [1] was 7 nM and the Emax [2] was 96%. It also gave an EC50 [2] of 10 nM.
`O=C(O)C1CN(c2cccc(-c3cc(C(F)(F)F)ccc3OCc3ccccc3)c2)C1` [Example 90, 1-[3-[2-benzyloxy-5-(trifluoromethyl)phenyl]phenyl]azetidine-3-carboxylic acid] showed an Emax [1] of 67%, an EC50 [1] of 6 nM and an Emax [2] of 57%. It also gave an EC50 [2] of 7 nM.
`Cc1cc(N2CC(C(=O)O)C2)cc(S(=O)(=O)n2cc(C)c3cc(C(F)(F)F)ccc32)c1` [Example 60, 1-[3-methyl-5-[3-methyl-5-(trifluoromethyl)indol-1-yl]sulfonylphenyl]azetidine-3-carboxylic acid] was tested, and the Emax [1] was 40%, the EC50 [1] was 898 nM and the Emax [2] was 24%. For the same compound, the EC50 [2] was 1700 nM.
In the case of `CC(C)(C)c1cc(-c2cccc(N3CC(C(=O)O)C3)c2)nc(C(C)(C)C)n1` [Example 81, 1-[3-(2,6-di-tert-butylpyrimidin-4-yl)phenyl]azetidine-3-carboxylic acid], the Emax [1] is reported as 108%, the EC50 [1] is reported as 50 nM and the Emax [2] is reported as 107%. It also gave an EC50 [2] of 112 nM.
Work on `O=C(O)C1CN(c2cccc(-c3cccc(-c4ccccc4)n3)c2)C1` [Example 40, 1-[3-(6-phenyl-2-pyridyl)phenyl]azetidine-3-carboxylic acid] yielded an Emax [1] of 80%, an EC50 [1] of 557 nM and an Emax [2] of 62%. For the same compound, the EC50 [2] was 880 nM.
Work on `CC1(C)CN(c2cccc(N3CC(C(=O)O)C3)c2)c2ccc(C(F)(F)F)cc2O1` [Example 112, 1-[3-[2,2-dimethyl-7-(trifluoromethyl)-3H-1,4,benzoxazin-4-yl]phenyl]azetidine-3-carboxylic acid] yielded an Emax [1] of 125%, an EC50 [1] of 3 nM and an Emax [2] of 136%. For the same compound, the EC50 [2] was 9 nM.
For `CC1(C)CN(c2cccc(N3CC(C(=O)NC(CO)CO)C3)c2)c2ccc(C(F)(F)F)cc2O1` [Example 276, 1-[3-[2,2-dimethyl-7-(trifluoromethyl)-3H-1,4-benzoxazin-4-yl]phenyl]N-[2-hydroxy-1-(hydroxymethyl)ethyl]azetidine-3-carboxamide], the Emax [1] was 105%, the EC50 [1] was 15 nM and the Emax [2] was 92%. For the same compound, the EC50 [2] was 150 nM.
For `Cc1nc(C(F)(F)F)nc(-c2cccc(N3CC(C(=O)O)C3)c2)c1C` [Example 35, 1-[3-[5,6-dimethyl-2-(trifloruomethyl)pyrrimidin-4-yl]phenyl]azetidine-3-carboxylic acid], the Emax [1] was 45%, the EC50 [1] was > 5000 nM and the Emax [2] was 44%. For the same compound, the EC50 [2] was > 5000 nM.
With `O=C(O)C1CN(c2cccc(-c3cccc(C(F)(F)F)n3)c2)C1` [Example 38, 1-[3-[6-(trifluoromethyl)-2-pyridyl]phenyl]azetidine-3-carboxylic acid] the Emax [1] was 75%, the EC50 [1] was > 5000 nM and the Emax [2] was 33%. The EC50 [2] was > 5000 nM.
`CCCNc1ccc(C(C)C)cc1-c1cccc(N2CC(C(=O)O)C2)c1` [Example 68, 1-[3-[5-isopropyl-2-(propylamino)phenyl]phenyl]azetidine-3-carboxylic acid] showed an Emax [1] of 127%, an EC50 [1] of 9 nM and an Emax [2] of 143%. For the same compound, the EC50 [2] was 12 nM.
